According to patent US8044044B2, “4-(1-amino-ethyl)-cyclohexylamine derivatives” (Actelion Pharmaceutical Ltd., priority 2006, dated 2011):
Converted amounts (≈) assume the structure as drawn.

Assays:
[1] = tested on: S. aureus A798; assay: MIC by broth microdilution (NCCLS), S. aureus A798; assay type: cell-based, Staphylococcus aureus; conditions: strain A798, cation-adjusted Mueller-Hinton Broth, pH 7.2-7.3; for MIC: Staphylococcus aureus
Procedure: (§1) These assays have been performed following the description given in “Methods for dilution Antimicrobial Susceptibility Tests for Bacteria that Grow Aerobically, 4th ed.; Approved standard: NCCLS Document M7-A4; National Committee for Clinical Laboratory Standards: Villanova, Pa., USA, 1997”. Minimal inhibitory concentrations (MICs; mg/l) were determined in cation-adjusted Mueller-Hinton Broth (BBL) by a microdilution method following NCCLS guidelines (National Committee for Clinical Laboratory Standards. Methods for Dilution Antimicrobial Susceptibility). The pH of the test medium was 7.2-7.3.

[2] = tested on: P. aeruginosa A1124; assay: MIC by broth microdilution (NCCLS), P. aeruginosa A1124; assay type: cell-based, Pseudomonas aeruginosa; conditions: strain A1124, cation-adjusted Mueller-Hinton Broth, pH 7.2-7.3; for MIC: Pseudomonas aeruginosa
Procedure: as §1

[3] = tested on: A. baumanii T6474; assay: MIC by broth microdilution (NCCLS), A. baumanii T6474; assay type: cell-based, Acetinobacter baumannii; conditions: strain T6474, cation-adjusted Mueller-Hinton Broth, pH 7.2-7.3; for MIC: Acinetobacter baumannii
Procedure: as §1

Row | SMILES | MIC ([1]; second table, all Examples) [µg/mL] | MIC S. aureus A798 ([1]; second table, all Examples) [µg/mL] | also measured
1 | COc1ccc2nccc(CC(N)[C@H]3CC[C@H](NCc4ccc5c(n4)NC(=O)CO5)CC3)c2n1 (mixture of isomers) [Example 9, 6-(trans-{4-[(1RS)-1-amino-2-(6-methoxy-[1,5]naphthyridin-4-yl)-ethyl]-cyclohexylamino}-methyl)-4H-pyrido[3,2-b][1,4]oxazin-3-one] | 0.5 (≈ 1.08 µM) |  | 
2 | COc1ccc2nccc(CC(N)[C@H]3CC[C@H](NCc4ccc5c(n4)NC(=O)CS5)CC3)c2c1 (mixture of isomers) [Example 20, trans-6-({4-[(1RS)-amino-2-(6-methoxy-quinolin-4-yl)-ethyl]-cyclohexylamino}-methyl)-4H-pyrido[3,2-b][1,4]thiazin-3-one] |  | 0.125 (≈ 0.262 µM) | 
3 | COc1ccc2c(CO)ccc(CC(N)[C@H]3CC[C@H](NC/C=C/c4cc(F)ccc4F)CC3)c2n1 (mixture of isomers) [Example 6, [8-((2RS)-2-amino-2-trans-{4-[3-(E)-(2,5-difluoro-phenyl)-allylamino]-cyclohexyl}-ethyl)-2-methoxy-quinolin-5-yl]-methanol] |  | 0.125 (≈ 0.26 µM) | MIC S. aureus A798 ([1]; table of typical results): 0.125 µg/mL (≈ 0.26 µM); MIC P. aeruginosa A1124 [2]: 0.5 µg/mL (≈ 1.04 µM); MIC A. baumanii T6474 [3]: 16 µg/mL (≈ 33.2 µM)
4 | COc1ccc2nccc(CC(N)[C@H]3CC[C@H](NCc4ccc5c(c4)NC(=O)CO5)CC3)c2c1 (mixture of isomers) [Example 19, trans-6-({4-[(1RS)-1-amino-2-(6-methoxy-quinolin-4-yl)-ethyl]-cyclohexylamino}-methyl)-4H-benzo[1,4]oxazin-3-one] | 1 (≈ 2.17 µM) |  | 
5 | COc1ccc2ncc(F)c(CC(N)[C@H]3CC[C@H](NCc4ccc5c(c4)NC(=O)CO5)CC3)c2c1 (mixture of isomers) [Example 16, trans-6-({4-[(1RS)-1-amino-2-(3-fluoro-6-methoxy-quinolin-4-yl)-ethyl]-cyclohexylamino}-methyl)-4H-benzo[1,4]oxazin-3-one] | 0.063 (≈ 0.132 µM) |  | 
6 | COC(=O)c1ccc(CC(N)[C@H]2CC[C@H](NC/C=C/c3cc(F)ccc3F)CC2)c2nc(OC)ccc12 (mixture of isomers) [Example 5, 8-[(2RS)-2-amino-2-trans-{4-[(E)-3-(2,5-difluoro-phenyl)-allylamino]-cyclohexyl}-ethyl]-2-methoxy-quinoline-5-carboxylic acid methyl ester] |  | 0.125 (≈ 0.245 µM) | 
7 | COc1ccc2ncc(F)c(CC(N)[C@H]3CC[C@@H](NC/C=C/c4cc(F)ccc4F)CC3)c2c1 (mixture of isomers) [Example 13, cis-{4-[(1RS)-1-amino-2-(3-fluoro-6-methoxy-quinolin-4-yl)-ethyl]-cyclohexyl}-[3-(E)-(2,5-difluoro-phenyl)-allyl]-amine] | 0.063 (≈ 0.134 µM) |  | 
8 | COc1ccc2ncc(F)c(CC(N)[C@H]3CC[C@H](NCc4ccc5c(n4)NC(=O)CS5)CC3)c2n1 (mixture of isomers) [Example 14, trans-6-({4-[(1RS)-1-amino-2-(3-fluoro-6-methoxy-[1,5]naphthyridin-4-yl)-ethyl]-cyclohexylamino}-methyl)-4H-pyrido[3,2-b][1,4]thiazin-3-one] | ≤ 0.031 |  | 
9 | COc1ccc2nccc([C@@H](O)[C@H](N)[C@H]3CC[C@H](NCc4ccc5c(n4)NC(=O)CS5)CC3)c2n1 (relative stereo) [Example 3, 6-(trans-{4-[(1R*,2R*)-1-amino-2-hydroxy-2-(6-methoxy-[1,5]naphthyridin-4-yl)-ethyl]-cyclohexylamino}-methyl)-4H-pyrido[3,2-b][1,4]thiazin-3-one] | 0.125 (≈ 0.253 µM) |  | 
10 | COc1ccc2ncc(F)c(CC(N)[C@H]3CC[C@H](NC/C=C/c4cc(F)ccc4F)CC3)c2c1 (mixture of isomers) [Example 12, trans-{4-[(1RS)-1-amino-2-(3-fluoro-6-methoxy-quinolin-4-yl)-ethyl]-cyclohexyl}-[3-(E)-(2,5-difluoro-phenyl)-allyl]-amine] | ≤ 0.031 |  | 
11 | COc1ccc2nccc([C@@H](O)[C@H](N)[C@H]3CC[C@H](NCc4ccc5c(c4)OCCO5)CC3)c2n1 (relative stereo) [Example 17, trans-(1R*,2R*)-2-amino-2-{4-[(2,3-dihydro-benzo[1,4]dioxin-6-ylmethyl)-amino]-cyclohexyl}-1-(6-methoxy-[1,5]naphthyridin-4-yl)-ethanol] |  | 0.063 (≈ 0.136 µM) | MIC ([1]; table of typical results): 0.063 µg/mL (≈ 0.136 µM); MIC [2]: 2 µg/mL (≈ 4.31 µM); MIC [3]: 16 µg/mL (≈ 34.4 µM)
12 | COc1ccc2ncc(F)c(CC(N)[C@H]3CC[C@@H](NCc4ccc5c(n4)NC(=O)CS5)CC3)c2c1 (mixture of isomers) [Example 11, cis-6-({4-[(1RS)-1-amino-2-(3-fluoro-6-methoxy-quinolin-4-yl)-ethyl]-cyclohexylamino}-methyl)-4H-pyrido[3,2-b][1,4]thiazin-3-one] |  | 0.5 (≈ 1.01 µM) | MIC ([1]; table of typical results): 0.5 µg/mL (≈ 1.01 µM); MIC [2]: 0.125 µg/mL (≈ 0.252 µM); MIC [3]: 4 µg/mL (≈ 8.07 µM)
13 | COc1ccc2nccc(C[C@H](N)[C@H]3CC[C@H](NCc4ccc5c(n4)NC(=O)CS5)CC3)c2n1 [Example 2, 6-(trans-{4-[(1S)-1-amino-2-(6-methoxy-[1,5]naphthyridin-4-yl)-ethyl]-cyclohexylamino}-methyl)-4H-pyrido[3,2-b][1,4]thiazin-3-one] | 0.125 (≈ 0.261 µM) |  | 
14 | COc1ccc2ncc(F)c(CC(N)[C@H]3CC[C@@H](NCc4ccc5c(n4)NC(=O)CS5)CC3)c2n1 (mixture of isomers) [Example 15, cis-6-({4-[(1RS)-1-amino-2-(3-fluoro-6-methoxy-[1,5]naphthyridin-4-yl)-ethyl]-cyclohexylamino}-methyl)-4H-pyrido[3,2-b][1,4]thiazin-3-one] | 0.25 (≈ 0.503 µM) |  | 
15 | COc1ccc2nccc(C[C@@H](N)[C@H]3CC[C@H](NCc4ccc5c(n4)NC(=O)CS5)CC3)c2n1 [Example 1, 6-(trans-{4-[(1R)-1-amino-2-(6-methoxy-[1,5]naphthyridin-4-yl)-ethyl]-cyclohexylamino}-methyl)-4H-pyrido[3,2-b][1,4]thiazin-3-one] |  | 4 (≈ 8.36 µM) | MIC ([1]; table of typical results): 4 µg/mL (≈ 8.36 µM); MIC [2]: 0.063 µg/mL (≈ 0.132 µM); MIC [3]: 32 µg/mL (≈ 66.9 µM)
16 | COc1cnc2cccc(CC(N)[C@H]3CC[C@H](NCc4ccc5c(n4)NC(=O)CS5)CC3)c2n1 (mixture of isomers) [Example 7, 6-(trans-{4-[(1RS)-1-amino-2-(3-methoxy-quinoxalin-5-yl)-ethyl]-cyclohexylamino}-methyl)-4H-pyrido[3,2-b][1,4]thiazin-3-one] | 0.063 (≈ 0.132 µM) |  | 
17 | COc1ccc2nccc(CC(N)[C@H]3CC[C@H](NCc4ccc5c(n4)NC(=O)CO5)CC3)c2c1 (mixture of isomers) [Example 21, trans-6-({4-[(1RS)-amino-2-(6-methoxy-quinolin-4-yl)-ethyl]-cyclohexylamino}-methyl)-4H-pyrido[3,2-b][1,4]oxazin-3-one] |  | 0.5 (≈ 1.08 µM) | 
18 | COc1ccc2nccc(CC(N)[C@H]3CC[C@H](NCC=Cc4cc(F)ccc4F)CC3)c2n1 (mixture of isomers) [Example 4, trans-{4-[(1RS)-1-amino-2-(6-methoxy-[1,5]naphthyridin-4-yl)-ethyl]-cyclohexyl}-[3-(2,5-difluoro-phenyl)-allyl]-amine] | 0.063 (≈ 0.139 µM) |  | 
19 | COc1cnc2cccc(CC(N)[C@H]3CC[C@@H](NCc4ccc5c(n4)NC(=O)CS5)CC3)c2n1 (mixture of isomers) [Example 8, 6-(cis-{4-[(1RS)-1-amino-2-(3-methoxy-quinoxalin-5-yl)-ethyl]-cyclohexylamino}-methyl)-4H-pyrido[3,2-b][1,4]thiazin-3-one] | 1 (≈ 2.09 µM) |  | 
20 | COc1ccc2nccc([C@@H](O)[C@H](N)[C@H]3CC[C@H](NC/C=C/c4cc(F)ccc4F)CC3)c2n1 (relative stereo) [Example 18, trans-(1R*,2R*)-2-amino-2-{4-[(E)-3-(2,5-difluoro-phenyl)-allylamino]-cyclohexyl}-1-(6-methoxy-[1,5]naphthyridin-4-yl)-ethanol] | ≤ 0.031 |  | 
21 | COc1ccc2ncc(F)c(CC(N)[C@H]3CC[C@H](NCc4ccc5c(n4)NC(=O)CS5)CC3)c2c1 (mixture of isomers) [Example 10, trans-6-({4-[(1RS)-1-amino-2-(3-fluoro-6-methoxy-quinolin-4-yl)-ethyl]-cyclohexylamino}-methyl)-4H-pyrido[3,2-b][1,4]thiazin-3-one] | 0.031 (≈ 0.0625 µM) |  | 
